In patent US9420790B2, “Molecules that induce disease resistance and improve growth in plants” (The Regents of the University of California, priority 2013, dated 2016):
“Also recorded” adds a separate entry of the source.

What was measured:
Arabidopsis roots = test: Root length of Col-0 seedlings on 1/2 MS plates containing synthetic elicitor; format: in vivo, Arabidopsis thaliana; settings: for enhancement of root length / root growth: HTC at 1 μM only, DCA and INA at various tested concentrations; for root growth at higher concentrations: higher doses, range tested 1 to 100 μM
Method: FIG. 5. Relative root length of Col-0 plants grown on synthetic elicitors. Col-0 seedlings were plated in square petri dishes on ½ MS medium containing 1, 10, 25, 50, 75 or 100 μM of HTC, DCA, INA, or the respective controls (solvent only). A. Roots of Col-0 seedlings grown on 1 uM HTC or control (0.01% DMSO) medium 14 days after germination. B. Average percent Col-0 root length grown on synthetic elicitors compared to Col-0 grown on control. Root length was measured at day 3, 5, 7, 11, and 14. Results are expressed as percentages of the average root length on the respective synthetic elicitor treatments compared to their controls. The average, standard error, and Student's t-test (p<0.05) were calculated from these values. Significant differences between synthetic elicitor-treated and control-treated plants are marked by a star above the corresponding data point. Y-axis represents relative root growth in the presence of synthetic elicitor. CSE: concentration of synthetic elicitor; dpg: days post germination.
We compared the ability of other synthetic elicitors to enhance growth, and performed root growth assays with INA, DCA, and HTC (FIG. 5B). Each synthetic elicitor was added to the solid media plates at concentrations ranging from 1 to 100 μM. The plates were placed upright in a growth chamber, and root lengths were measured at 3 d-intervals. To merge data sets, root length was expressed as a percentage of their value relative to the average of the mock (control) for that data set. Normalizing each root length to its control allowed all replicates to be combined together to calculate averages, standard errors, and perform statistical tests (FIG. 5B).

[1] = tested on: Peronospora isolate Noco2; test: Noco2 spore inhibition assay in soil-grown seedlings; format: in vivo, Hyaloperonospora arabidopsidis; settings: for resistance to Noco2: 100 μM sprayed 1 h prior to pathogen challenge; for level of protection / defense-inducing activity against Noco2 / concentration giving significant protection against Noco2: dose-response; for level of protection / defense-inducing activity against Noco2: three-week old Col-0 (FIG. 3B); for concentration giving significant protection against Noco2: three-week old Col-0, infected 24 h after treatment, 7 dpi (FIG. 3B); for HTC-triggered immunity to Noco2: 100 μM; for suppression of Noco2 spore formation / resistance to Noco2: 7 dpi
Method: FIG. 2. Kinetic analysis of chemically-induced disease resistance. Experiments were conducted with three-week-old soil-grown Col-0 seedlings sprayed with 100 μM HTC, DCA, INA, or mock solution (1% DMSO) at the indicated times prior to being sprayed with 2×10^4 mL^−1Noco2 spores (2 ml per pot). Peronospora (Hyeloperonospora arabidopsidis) spores were counted 7 dpi (days post-infection). Mean and SE values were calculated from a minimum of three biological replicates and the average of those is shown above.
FIG. 3. Structure-activity analysis of HTC analogs. A. Chemical structures of DCA, HTC and tested HTC analogs. Chiral centers of the HTC skeleton are indicated by “1*” and “2*” in HTC. B. Noco2 spore inhibition assay. Three-week-old soil-grown Col-0 seedlings were spray-infected 24 h after treating with varying concentrations of each synthetic elicitor and then assayed at 7 dpi for spore growth. 100% inhibition=0 spores. […] The average of those three replicates is shown. Significant differences of compound-treated compared to mock-treated seedlings determined by Student's t-tests (p<0.05) are marked by colored four pointed stars.
(§1) FIG. 4. Analysis of HTC activity in defense mutant plants. A & B. RT-PCR analysis of CaBP22 transcript levels in Col-0 (wild-type) and mutant backgrounds 24 h after spraying 2-week-old seedlings with mock-solution (1% DMSO), 100 μM DCA, or HTC. RT-PCRs with ACTIN are shown as loading controls. […] C. Analysis of HTC activity in Col-0 or nahG background. Experiments were conducted with three-week-old soil-grown Col-0 or nahG seedlings sprayed with 100 μM HTC, 100 μM DCA, or mock-solution (1% DMSO) 24 h prior to infection with 2×10^4 virulent Noco2 spores ml^−1 (2 ml per pot). Spores were counted at 7 dpi. Mean and SE values were calculated from a minimum of three biological replicates and their averages of are shown.
We next tested whether HTC could induce pathogen resistance in soil-grown plants. […] To determine if HTC differs from other synthetic elicitors in the kinetics of defense induction, Col-0 seedlings were sprayed with 100 μM of INA, DCA, HTC, or mock, 1 h, 3 h, 1 d, 3 d, or 6 d prior to pathogen challenge.
We performed a dose-response analysis of inhibition of Noco2 spore development in three-week old Col-0 plants using the HTC analogs (FIG. 3B).
We also compared the biological activity of s-HTC to that of p-HTC by spraying a concentration gradient of both preparations on soil-grown Col-0 seedlings 24 h prior to challenge with Noco2.

[2] = tested on: CaBP22^−333::GUS expression; test: CaBP22-333::GUS reporter assay, liquid-grown seedlings (saturation treatment); format: in vivo, Arabidopsis thaliana
Method: (§2) B. Trypan blue staining of CaBP22^−333 : :GUS seedlings incubated for 24 h in medium containing compounds at the indicated concentrations.
(§3) To quantify the bioactivity of HTC, we performed various assays with one week-old CaBP22^−333::GUS seedlings submerged in liquid growth medium containing HTC or mock-solution (saturation treatment). […] To examine if HTC induces phytotoxicity, we stained Col-0 seedlings after saturation treatment with trypan blue.
(§4) To determine which substituents or moieties of the HTC molecule are critical for its defense-inducing activity, seven commercially available HTC analogs were analyzed (FIG. 3A). We compared the ability of these compounds to induce GUS expression in saturation treated CaBP22^−333::GUS Arabidopsis seedlings to that of DCA and HTC. […] We also used trypan blue staining to examine HTC-analog-induced phytotoxicity.

[3] = tested on: Tomato cv. Moneymaker seedlings; test: Root length of plate-grown tomato seedlings; format: in vivo, Solanum lycopersicum; settings: 1 μM
Method: (§5) FIG. 7. Relative root length and FW of tomato seedlings and shoots. Tomato cv. Moneymaker seedlings treated with HTC compared to seedlings treated with control (DMSO 0.01%). A. Moneymaker seedlings were plated in square petri dishes on ½ MS medium containing HTC. Root length was measured at day 2, 4, 6, and 8. Results are expressed as percentages of the average root length on 1 μM HTC or control. The average, standard error, and Student's t-test (p<0.05) were calculated from these values. Each time point represents at least 89 distinct root length measurements from at least three biological replicates. Y-axis represents percent of root growth in the presence of synthetic elicitor compared to controls. B. Moneymaker seeds (five seeds per pot with a minimum of 21 pots) were sown on soil drenched with 20 ml of the indicated concentrations of HTC or their respective control. Fresh weight (FW) of the above-ground plant tissues was measured at day 14. Results are expressed as percentages of the average weight of HTC treatments compared to those of the controls. The standard error and Student's t-test (p<0.01) were calculated from at least three biological replicates and the average is shown above. Significant differences between synthetic elicitor-treated and control-treated plants are marked by stars above the corresponding data points. […]

[4] = tested on: Tomato cv. Moneymaker seedlings; test: Root drench assay, aerial fresh weight of soil-grown tomato; format: in vivo, Solanum lycopersicum; settings: 10 μM single soil drench, day 14
Method: as §5

Col-0 seedlings [5] = test: Trypan blue staining for phytotoxicity (cell death) after saturation treatment; format: in vivo, Arabidopsis thaliana; settings: for seedlings with cell death (trypan blue staining): treated for 24 h at 300 μM
Method: as §2, §3, §4

Col-0 seedlings [6] = test: Fresh weight of aerial portions of soil-drenched Col-0 seedlings; format: in vivo, Arabidopsis thaliana; settings: 1-100 μM soil drench, day 14
Method: FIG. 6. Relative weight of aerial portions of synthetic elicitor treated Col-0 seedlings compared to control (DMSO) treated seedlings. Col-0 seeds (15-20 seeds per pot) were sown on soil drenched with 20 mL of the indicated concentrations of HTC, INA, DCA, or the respective mock solutions. Fresh weight (FW) of the above-ground plant tissues was measured at day 14. Results are expressed as percentages of the average FW of the respective synthetic elicitor treated plants compared to that of mock-treated controls. The standard error and Student's t-test (p<0.05) were calculated from at least three biological replicates and averages are shown. Significant differences between synthetic elicitor-treated and control-treated plants are marked by a star above the corresponding data point. Y-axis represents percent of FW in the presence of synthetic elicitor compared to controls.
To determine whether the synthetic […] could increase the aerial weight of Arabidopsis, soil-sown-seedlings were drenched with synthetic elicitor in water at day 0 (FIG. 6). After 14 days, aerial portions of plants were cut off and their fresh weight measured. […] HTC thus has a hormesis-like effect in Arabidopsis roots, but generally increases the aerial fresh weight of Arabidopsis at the concentrations tested.

CaBP22 transcript levels = test: RT-PCR analysis of CaBP22 transcript levels in Col-0 and defense mutants; format: in vivo, Arabidopsis thaliana; settings: for CaBP22 transcript accumulation / ability to induce CaBP22 expression: 100 μM; for ability to induce CaBP22 expression: transgenic nahG line
Method: as §1
To establish the mode-of-action of HTC, we performed reverse transcription (RT)-PCRs examining transcript levels of the defense marker gene CaBP22 in Col-0 and a set of mutant lines representing various defense signaling mechanisms. […] In the transgenic nahG line, which is compromised in the accumulation of salicylic acid (SA), the ability of HTC to induce CaBP22 expression was blocked, while that of DCA was not affected (FIGS. 4A and B).

Pseudomonas syringae = settings: Arabidopsis; cited from earlier work
[7] = tested on: Hyaloperonospora arabidopsidis (Peronospora); settings: Arabidopsis; cited from earlier work
[8] = Col-0, 100 μM sprayed 24 h prior to infection
[9] = nahG, 100 μM sprayed 24 h prior to infection
[10] = Col-0, 24 h after spraying 100 μM
[11] = wrky70-3 mutant, 24 h after spraying 100 μM

SMILES	enhancement of root length / root growth (Arabidopsis roots)	root growth at higher concentrations (Arabidopsis roots)	resistance to Noco2 [1]	level of protection / defense-inducing activity against Noco2 [1]	concentration giving significant protection against Noco2 [1]	seedlings with cell death (trypan blue staining) (Col-0 seedlings [5])	suppression of Noco2 spore formation / resistance to Noco2 [1, 8]	suppression of Noco2 spore formation / resistance to Noco2 [1, 9]	CaBP22 transcript levels (CaBP22 transcript levels; [10])	ability to induce CaBP22 expression (CaBP22 transcript levels)	CaBP22 transcript levels (CaBP22 transcript levels; [11])	other results
O=C(O)c1cc(Cl)nc(Cl)c1 [INA, reference compound]	enhanced Arabidopsis root growth	not	full resistance									
O=C(O)C1CSC(c2ccccc2O)N1 (stereo not drawn) [CMP140, 2-(2-hydroxy-phenyl)-thiazolidine-4-carboxilic acid]				less efficient defense inducer compared to HTC	at least 100 uM							efficiency of GUS induction among HTC analogs [2]: most efficient HTC analog
O=C(O)C1CSC(c2cc(Br)ccc2O)N1 (stereo not drawn) [HTC, 2-(5-bromo-2-hydroxy-phenyl)-thiazolidine-4-carboxylic acid]	enhanced the root length	reduced root growth; also recorded: strongly inhibited		highest protection; also recorded: most potent of the tested analogs	10 µM	100%	able to do so; also recorded: significantly suppresses	did not observe significant reduction and not	induced an increase	blocked	not	concentration activating CaBP22-333::GUS expression (as low as) ([2]; within 24 h, one week-old seedlings): 1 µM; change in root length ([3]; all analyzed time-points): significant increase in root length; root length relative to mock-treated plants ([3]; day 6): 136.1%; fresh weight of shoots relative to mock-treated plants [4]: 128.5%; root length relative to control plates (Arabidopsis roots; 1 μM): up to 180%; reduction of length of roots (Arabidopsis roots; concentrations above 50 μM): ~80%; cell death (trypan blue staining) (Col-0 seedlings [5]; lower concentrations that resulted in reporter activation (1-100 μM)): No cell death; HTC-triggered immunity to Noco2 ([1]; 6 dpt): not detectable; HTC-triggered immunity to Noco2 ([1]; 3 days post treatment (dpt)): reduced; efficacy of s-HTC versus p-HTC in reducing Noco2 spore counts ([1]; 20, 50, 100, and 200 μM sprayed on Col-0 24 h prior to challenge): No significant difference; concentration giving significantly reduced numbers of Noco2 spores (as low as) ([1]; Col-0 sprayed prior to infection, spores 7 dpi): 10 µM; fresh weight of shoots relative to mock-treated plants (Col-0 seedlings [6]): ~120%; CaBP22 transcript accumulation (CaBP22 transcript levels; pad4-1 mutant): reduced; CaBP22 transcript accumulation (CaBP22 transcript levels; sid2-2 mutant): reduced; CaBP22 transcript accumulation (CaBP22 transcript levels; wrky72-2 mutant): full HTC-induced CaBP22 transcript accumulation
O=C(O)C1CSCN1 (stereo not drawn) [T4CA, 4-carboxy-4-thiazolidinyl, reference compound]				did not result in significant immunity								
Nc1c(Cl)cc(Cl)cc1C(=O)O [DCA, 3-5-dicholoroanthranlilic acid, reference compound]	enhanced Arabidopsis root growth	strongly inhibited	full resistance	highest protection	10 µM	100%	induced resistance; also recorded: significantly suppresses	induced resistance; also recorded: significantly suppresses	induced an increase	not affected	not	disease resistance (Pseudomonas syringae): fast, strong and transient disease resistance; disease resistance [7]: fast, strong and transient disease resistance
